Series [1] is described as follows: Solubility in aqueous medium. Format: physicochemical. Conditions: precipitation observed when DMSO solution was diluted with HBSS.
The test system of another series is A549 cells. Conditions: toxic at this concentration or higher, ref Zhu et al., 2020; cited from earlier work.

A value given as a limit tells only on which side of the number the result lay.

Regarding `CC(C)(C)c1cc(C(C)(C)C)c(NC(=O)c2c[nH]c3ccccc3c2=O)cc1O` [ivacaftor, Ivacaftor], the “Solubility in aqueous medium” value in series [1] is listed as “very low solubility”. Moreover, the “Concentration toxic to A549 cells” value with A549 cells is no less than 8000 ng/mL.

These data come from paper PMC7904636 (International journal of pharmaceutics, 2021).
